Molecular target: T1, 5-LO in intact RBL-1 cells (Rattus norvegicus, UniProt P12527)
T1 construct: endogenous in cells; host or cells: intact RBL-1 cells
T1 sequence (P12527 1-673): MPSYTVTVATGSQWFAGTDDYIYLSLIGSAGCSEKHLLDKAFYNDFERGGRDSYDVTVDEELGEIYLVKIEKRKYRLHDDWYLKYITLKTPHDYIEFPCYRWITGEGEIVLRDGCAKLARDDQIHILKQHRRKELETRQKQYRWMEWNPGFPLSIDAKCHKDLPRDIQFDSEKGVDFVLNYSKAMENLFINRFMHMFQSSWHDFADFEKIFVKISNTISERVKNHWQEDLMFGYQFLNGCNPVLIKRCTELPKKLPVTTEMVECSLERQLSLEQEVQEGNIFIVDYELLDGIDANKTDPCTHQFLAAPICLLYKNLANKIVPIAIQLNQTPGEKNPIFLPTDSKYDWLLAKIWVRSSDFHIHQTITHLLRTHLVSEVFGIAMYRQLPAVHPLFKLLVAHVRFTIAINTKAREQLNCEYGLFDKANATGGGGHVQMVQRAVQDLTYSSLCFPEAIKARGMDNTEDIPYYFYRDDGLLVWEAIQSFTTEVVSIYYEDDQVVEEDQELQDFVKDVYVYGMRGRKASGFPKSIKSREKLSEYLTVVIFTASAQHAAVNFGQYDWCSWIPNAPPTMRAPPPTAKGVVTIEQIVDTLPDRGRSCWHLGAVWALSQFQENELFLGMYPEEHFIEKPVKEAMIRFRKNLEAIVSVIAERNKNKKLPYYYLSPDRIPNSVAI
Assay: 5-LO inhibition in intact RBL-1 cells (Procedure III)
Format: cell-based
Conditions: read-out: PROC. III IC50 5-LO
Experimental: The ability to inhibit 5-LO and CO in intact RBL-1 cells was also evaluated. RBL-1 cells were maintained in culture in minimal essential medium (Bio*Whittaker, Walkersville, MD), containing 12.5% fetal calf serum, 10 mg/mL streptomycin, 10 I.U./mL penicillin G, […] gentamycin and 2 mM L-glutamine (Bio*Whittaker, Walkersville, MD). Cells were collected by centrifugation, washed once in HBSS, and resuspended at a concentration of 1×10^5 cells/mL. Cells were incubated in the presence of vehicle or drug then centrifuged at 800×g for 10 minutes at 4° C. The supernatant was removed by aspiration and the cells were resuspended in 0.5 mL of HBSS. The reaction was started by the addition of 20 μg/mL of calcium ionophore A-23187 (mixed calcium and magnesium salts, Calbiochem, La Jolla CA) and allowed to proceed for 15 minutes, then stopped by plunging the tubes into a slush ice bath. The conversion of AA to 5-LO products was initiated by the addition of 10 μL (50 uCi) of 1-^14 C-AA. Products were isolated by acidification and extraction, followed by thin layer chromatography analysis as described above. Radioactive areas corresponding to authentic 5-LO and CO products were quantitated by the Bioscan 2000 Imaging System.

Compound | IC50 [nM]
COc1ccc(-n2nc(CSC(=S)N(C)O)c(Cl)c2-c2ccc(Cl)cc2)cc1 [1-C] | 240
COc1ccc(-n2nc(CSC(=S)N(O)C(C)C)cc2-c2ccc(Cl)cc2)cc1 [1-B] | 7000

Next, values leading:

IC50 [nM] | Compound
670 | COc1ccc(-n2nc(CSC(=S)N(C)O)c(Cl)c2-c2ccc(C)cc2)cc1 [1-H]
2800 | COc1ccc(-n2nc(CSC(=S)N(O)C(C)C)c(Br)c2-c2ccc(Cl)cc2)cc1 [1-E]
5600 | COc1ccc(-n2nc(CSC(=S)N(O)C(C)C)cc2-c2ccc(C)cc2)cc1 [1-G]

Source: patent US5298521A, “1,5-diphenyl-3-pyrazolylalkyl-N-hydroxydithiocaramates, compositions and use” (Ortho Pharmaceutical Corporation, priority 1993, dated 1994)
